Test results as given in the kinase profiling compilation of Christmann-Franck et al. (2016).
pKd: −log10 of the molar value.

How the values were obtained:
Assay in all cases: KINOMEscan competition binding
AAK1 (human) = AAK1 (human) (UniProt Q2M2I8); conditions: compound 10.0 µM
ABL2 (human) = ABL2 (human) (UniProt P42684); conditions: compound 10.0 µM
BLK (human) = BLK (human) (UniProt P51451); conditions: compound 10.0 µM
CDK17 (human) = CDK17 (human) (UniProt Q00537); conditions: compound 10.0 µM
CDK7 (human) = CDK7 (human) (UniProt P50613); conditions: compound 10.0 µM
CDK9 (human) = CDK9 (human) (UniProt P50750); conditions: compound 10.0 µM
CRK2 (P.falciparum) = CRK2 (P.falciparum) (UniProt P61075); conditions: compound 10.0 µM
DAPK3 (human) = DAPK3 (human) (UniProt O43293); conditions: compound 10.0 µM
EGFR (human) = EGFR (human) (UniProt P00533); conditions: compound 10.0 µM
[1] = system: EGFR (human), P00533 [A750P; 747-749 del]; conditions: compound 10.0 µM
EIF2AK1 (human) = EIF2AK1 (human) (UniProt Q9BQI3); conditions: compound 10.0 µM
EIF2AK2 (human) = EIF2AK2 (human) (UniProt P19525); conditions: compound 10.0 µM
EPHA2 (human) = EPHA2 (human) (UniProt P29317); conditions: compound 10.0 µM
FLT1 (human) = FLT1 (human) (UniProt P17948); conditions: compound 10.0 µM
HIPK4 (human) = HIPK4 (human) (UniProt Q8NE63); conditions: compound 10.0 µM
[2] = system: KIT (human), P10721 [V559D]; conditions: compound 10.0 µM
MAP2K2 (human) = MAP2K2 (human) (UniProt P36507); conditions: compound 10.0 µM
MAP3K11 (human) = MAP3K11 (human) (UniProt Q16584); conditions: compound 10.0 µM
MAP4K1 (human) = MAP4K1 (human) (UniProt Q92918); conditions: compound 10.0 µM
MAPK13 (human) = MAPK13 (human) (UniProt O15264); conditions: compound 10.0 µM
MAPK6 (human) = MAPK6 (human) (UniProt Q16659); conditions: compound 10.0 µM
MATK (human) = MATK (human) (UniProt P42679); conditions: compound 10.0 µM
MERTK (human) = MERTK (human) (UniProt Q12866); conditions: compound 10.0 µM
[3] = system: MET (human), P08581 [M1250T]; conditions: compound 10.0 µM
NEK1 (human) = NEK1 (human) (UniProt Q96PY6); conditions: compound 10.0 µM
NEK6 (human) = NEK6 (human) (UniProt Q9HC98); conditions: compound 10.0 µM
NTRK2 (human) = NTRK2 (human) (UniProt Q16620); conditions: compound 10.0 µM
NUAK1 (human) = NUAK1 (human) (UniProt O60285); conditions: compound 10.0 µM
NUAK2 (human) = NUAK2 (human) (UniProt Q9H093); conditions: compound 10.0 µM
PAK3 (human) = PAK3 (human) (UniProt O75914); conditions: compound 10.0 µM
[4] = system: PIK3CA (human), P42336 [C420R]; conditions: compound 10.0 µM
[5] = system: PIK3CA (human), P42336 [E542K]; conditions: compound 10.0 µM
PLK1 (human) = PLK1 (human) (UniProt P53350)
RAF1 (human) = RAF1 (human) (UniProt P04049); conditions: compound 10.0 µM
RPS6KA1 KD2 (human) = RPS6KA1 KD2 (human) (UniProt Q15418); conditions: compound 10.0 µM
SGK3 (human) = SGK3 (human) (UniProt Q96BR1); conditions: compound 10.0 µM
SRPK3 (human) = SRPK3 (human) (UniProt Q9UPE1); conditions: compound 10.0 µM
STK11 (human) = STK11 (human) (UniProt Q15831); conditions: compound 10.0 µM
STK35 (human) = STK35 (human) (UniProt Q8TDR2); conditions: compound 10.0 µM
[6] = biological target: TYK2 JH2 pseudokinase (human) (UniProt P29597); conditions: compound 10.0 µM
TYRO3 (human) = TYRO3 (human) (UniProt Q06418); conditions: compound 10.0 µM

Chain of PLK1 (human) (P53350 whole entry, looked up): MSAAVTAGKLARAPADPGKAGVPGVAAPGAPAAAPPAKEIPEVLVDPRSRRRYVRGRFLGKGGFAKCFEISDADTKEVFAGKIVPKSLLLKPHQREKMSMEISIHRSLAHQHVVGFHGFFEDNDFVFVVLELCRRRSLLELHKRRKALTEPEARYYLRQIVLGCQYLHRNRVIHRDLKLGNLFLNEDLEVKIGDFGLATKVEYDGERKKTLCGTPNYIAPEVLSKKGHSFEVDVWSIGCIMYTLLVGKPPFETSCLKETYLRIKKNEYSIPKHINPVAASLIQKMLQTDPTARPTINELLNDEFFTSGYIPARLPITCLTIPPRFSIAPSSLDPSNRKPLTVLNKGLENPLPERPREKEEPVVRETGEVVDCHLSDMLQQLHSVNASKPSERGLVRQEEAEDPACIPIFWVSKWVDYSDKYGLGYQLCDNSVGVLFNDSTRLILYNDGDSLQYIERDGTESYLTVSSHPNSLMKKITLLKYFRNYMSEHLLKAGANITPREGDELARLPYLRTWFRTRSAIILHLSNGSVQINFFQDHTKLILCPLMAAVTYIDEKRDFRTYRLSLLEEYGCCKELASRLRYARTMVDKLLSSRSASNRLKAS
Chain of MATK (human) (P42679 whole entry, looked up): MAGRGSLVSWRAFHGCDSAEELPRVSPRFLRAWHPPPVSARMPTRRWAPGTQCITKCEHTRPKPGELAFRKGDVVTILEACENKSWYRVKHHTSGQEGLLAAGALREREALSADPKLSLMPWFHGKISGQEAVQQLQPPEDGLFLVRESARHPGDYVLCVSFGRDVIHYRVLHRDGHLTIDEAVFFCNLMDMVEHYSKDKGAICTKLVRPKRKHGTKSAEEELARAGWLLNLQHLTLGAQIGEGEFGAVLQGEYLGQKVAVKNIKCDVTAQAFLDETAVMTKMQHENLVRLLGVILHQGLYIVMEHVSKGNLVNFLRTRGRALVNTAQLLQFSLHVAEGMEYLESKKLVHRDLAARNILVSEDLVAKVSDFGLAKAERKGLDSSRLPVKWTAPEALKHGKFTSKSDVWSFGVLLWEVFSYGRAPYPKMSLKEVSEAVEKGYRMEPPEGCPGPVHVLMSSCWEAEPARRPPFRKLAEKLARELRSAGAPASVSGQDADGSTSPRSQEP
Chain of SRPK3 (human) (Q9UPE1 whole entry, looked up): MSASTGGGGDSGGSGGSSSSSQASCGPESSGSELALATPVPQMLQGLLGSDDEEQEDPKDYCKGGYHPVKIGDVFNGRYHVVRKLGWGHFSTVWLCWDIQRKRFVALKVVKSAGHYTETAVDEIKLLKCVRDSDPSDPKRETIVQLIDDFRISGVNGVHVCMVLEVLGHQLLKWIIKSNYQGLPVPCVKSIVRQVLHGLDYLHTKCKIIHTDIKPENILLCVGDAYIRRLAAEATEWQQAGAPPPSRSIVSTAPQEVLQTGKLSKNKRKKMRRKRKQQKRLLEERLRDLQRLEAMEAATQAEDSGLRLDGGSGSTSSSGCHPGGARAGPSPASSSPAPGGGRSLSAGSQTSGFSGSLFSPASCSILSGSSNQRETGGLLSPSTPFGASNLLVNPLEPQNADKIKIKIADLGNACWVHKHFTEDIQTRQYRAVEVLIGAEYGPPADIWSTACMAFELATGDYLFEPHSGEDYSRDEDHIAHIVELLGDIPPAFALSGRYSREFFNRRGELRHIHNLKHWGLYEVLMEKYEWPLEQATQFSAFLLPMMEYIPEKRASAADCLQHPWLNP
Chain of MERTK (human) (Q12866 whole entry, looked up): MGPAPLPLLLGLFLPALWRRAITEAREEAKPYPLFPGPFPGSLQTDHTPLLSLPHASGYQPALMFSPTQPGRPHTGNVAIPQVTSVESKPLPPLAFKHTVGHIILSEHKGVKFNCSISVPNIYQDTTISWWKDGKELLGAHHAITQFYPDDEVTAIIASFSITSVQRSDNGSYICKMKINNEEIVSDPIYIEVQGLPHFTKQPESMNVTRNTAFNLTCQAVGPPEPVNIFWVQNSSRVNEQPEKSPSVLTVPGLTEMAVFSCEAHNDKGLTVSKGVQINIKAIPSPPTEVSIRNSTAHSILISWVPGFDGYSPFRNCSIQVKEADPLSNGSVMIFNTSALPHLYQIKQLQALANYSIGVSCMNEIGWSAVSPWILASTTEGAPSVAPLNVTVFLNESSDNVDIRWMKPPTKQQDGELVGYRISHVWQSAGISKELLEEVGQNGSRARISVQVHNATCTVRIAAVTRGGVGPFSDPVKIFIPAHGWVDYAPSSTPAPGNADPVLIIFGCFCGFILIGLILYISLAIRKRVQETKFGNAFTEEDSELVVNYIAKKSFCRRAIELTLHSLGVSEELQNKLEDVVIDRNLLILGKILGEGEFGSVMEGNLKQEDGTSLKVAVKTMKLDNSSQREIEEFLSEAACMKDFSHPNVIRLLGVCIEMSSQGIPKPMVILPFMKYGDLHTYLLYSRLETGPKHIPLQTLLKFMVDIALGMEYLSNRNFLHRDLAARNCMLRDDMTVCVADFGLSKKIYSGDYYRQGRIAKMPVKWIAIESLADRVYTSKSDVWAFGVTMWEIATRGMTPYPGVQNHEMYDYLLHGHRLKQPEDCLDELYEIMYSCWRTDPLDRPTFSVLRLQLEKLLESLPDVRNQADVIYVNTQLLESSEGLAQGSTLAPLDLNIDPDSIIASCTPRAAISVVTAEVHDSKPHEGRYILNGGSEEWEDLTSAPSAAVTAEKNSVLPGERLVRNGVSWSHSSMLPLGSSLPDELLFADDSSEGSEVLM
Chain of AAK1 (human) (Q2M2I8 whole entry, looked up): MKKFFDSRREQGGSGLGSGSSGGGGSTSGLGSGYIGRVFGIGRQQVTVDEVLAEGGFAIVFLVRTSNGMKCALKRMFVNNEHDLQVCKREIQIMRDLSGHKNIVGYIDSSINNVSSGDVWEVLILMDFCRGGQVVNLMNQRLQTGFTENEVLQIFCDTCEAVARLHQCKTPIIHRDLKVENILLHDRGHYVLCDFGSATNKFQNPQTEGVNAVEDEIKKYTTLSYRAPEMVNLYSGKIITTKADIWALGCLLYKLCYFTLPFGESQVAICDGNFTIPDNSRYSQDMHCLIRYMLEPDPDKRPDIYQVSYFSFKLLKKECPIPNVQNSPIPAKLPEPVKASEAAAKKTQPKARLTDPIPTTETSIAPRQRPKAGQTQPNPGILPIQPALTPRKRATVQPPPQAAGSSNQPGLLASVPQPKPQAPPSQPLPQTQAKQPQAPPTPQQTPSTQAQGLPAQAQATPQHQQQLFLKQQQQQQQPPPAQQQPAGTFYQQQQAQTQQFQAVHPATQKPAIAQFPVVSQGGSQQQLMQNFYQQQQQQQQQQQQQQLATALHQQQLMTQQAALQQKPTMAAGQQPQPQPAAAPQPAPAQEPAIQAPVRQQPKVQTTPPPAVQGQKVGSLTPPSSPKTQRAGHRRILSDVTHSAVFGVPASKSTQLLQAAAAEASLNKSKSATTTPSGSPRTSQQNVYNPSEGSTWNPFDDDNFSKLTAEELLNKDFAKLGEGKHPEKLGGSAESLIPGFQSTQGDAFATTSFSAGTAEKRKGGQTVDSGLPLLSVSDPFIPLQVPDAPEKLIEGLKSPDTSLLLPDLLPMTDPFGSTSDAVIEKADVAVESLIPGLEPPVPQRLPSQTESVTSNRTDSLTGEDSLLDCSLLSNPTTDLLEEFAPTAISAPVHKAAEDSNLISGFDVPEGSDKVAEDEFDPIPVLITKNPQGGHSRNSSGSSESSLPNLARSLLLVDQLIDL
Chain of NUAK1 (human) (O60285 whole entry, looked up): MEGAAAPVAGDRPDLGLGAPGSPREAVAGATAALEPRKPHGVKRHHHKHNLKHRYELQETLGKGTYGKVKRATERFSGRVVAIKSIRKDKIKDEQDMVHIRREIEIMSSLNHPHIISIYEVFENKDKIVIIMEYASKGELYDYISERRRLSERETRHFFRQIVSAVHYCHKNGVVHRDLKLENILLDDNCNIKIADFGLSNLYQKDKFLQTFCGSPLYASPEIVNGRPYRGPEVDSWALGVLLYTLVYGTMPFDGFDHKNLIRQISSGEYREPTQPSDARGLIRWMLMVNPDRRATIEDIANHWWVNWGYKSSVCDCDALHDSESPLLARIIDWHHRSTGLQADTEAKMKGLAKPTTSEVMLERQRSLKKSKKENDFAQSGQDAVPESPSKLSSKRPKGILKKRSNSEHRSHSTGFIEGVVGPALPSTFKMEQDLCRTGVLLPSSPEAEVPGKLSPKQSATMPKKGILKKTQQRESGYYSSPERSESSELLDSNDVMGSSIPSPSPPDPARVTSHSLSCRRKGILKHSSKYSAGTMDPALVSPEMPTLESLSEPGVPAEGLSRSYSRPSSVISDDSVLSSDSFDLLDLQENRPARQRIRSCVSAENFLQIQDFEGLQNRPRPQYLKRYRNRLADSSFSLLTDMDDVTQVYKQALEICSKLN
Chain of RAF1 (human) (P04049 whole entry, looked up): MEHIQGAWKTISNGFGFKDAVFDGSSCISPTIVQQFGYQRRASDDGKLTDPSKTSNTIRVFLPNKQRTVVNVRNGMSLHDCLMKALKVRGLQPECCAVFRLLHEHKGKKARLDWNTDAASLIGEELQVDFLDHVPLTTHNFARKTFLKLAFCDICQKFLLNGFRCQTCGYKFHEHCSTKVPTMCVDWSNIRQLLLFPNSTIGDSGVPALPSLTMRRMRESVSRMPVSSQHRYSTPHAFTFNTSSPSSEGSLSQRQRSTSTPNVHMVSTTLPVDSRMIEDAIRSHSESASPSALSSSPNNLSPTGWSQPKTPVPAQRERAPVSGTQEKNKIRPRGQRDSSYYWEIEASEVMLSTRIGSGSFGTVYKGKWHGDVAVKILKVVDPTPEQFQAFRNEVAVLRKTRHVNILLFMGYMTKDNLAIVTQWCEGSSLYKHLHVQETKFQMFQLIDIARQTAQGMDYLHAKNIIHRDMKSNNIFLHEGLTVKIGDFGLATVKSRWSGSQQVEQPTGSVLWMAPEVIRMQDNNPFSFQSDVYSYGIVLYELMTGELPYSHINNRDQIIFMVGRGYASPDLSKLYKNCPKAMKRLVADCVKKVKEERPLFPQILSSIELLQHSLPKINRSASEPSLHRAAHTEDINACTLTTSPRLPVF

COc1cc(C(=O)N2CCC(N3CCN(C)CC3)CC2)ccc1Nc1ncc2c(n1)N(C)c1ccccc1C(=O)N2C
kinase still bound, per cent of control (AAK1 (human)): 84% | kinase still bound, per cent of control (ABL2 (human)): 97% | kinase still bound, per cent of control (BLK (human)): 97% | residual activity (CDK17 (human)): 83% | residual activity (CDK7 (human)): 86% | residual activity (CDK9 (human)): 100% | kinase still bound, per cent of control (CRK2 (P.falciparum)): 100% | kinase still bound, per cent of control (DAPK3 (human)): 67% | kinase still bound, per cent of control (EGFR (human)): 84% | kinase still bound, per cent of control [1]: 78% | kinase still bound, per cent of control (EIF2AK1 (human)): 100% | kinase still bound, per cent of control (EIF2AK2 (human)): 84% | kinase still bound, per cent of control (EPHA2 (human)): 92% | kinase still bound, per cent of control (FLT1 (human)): 100% | kinase still bound, per cent of control (HIPK4 (human)): 100% | kinase still bound, per cent of control [2]: 100% | kinase still bound, per cent of control (MAP2K2 (human)): 99% | kinase still bound, per cent of control (MAP3K11 (human)): 100% | kinase still bound, per cent of control (MAP4K1 (human)): 100% | kinase still bound, per cent of control (MAPK13 (human)): 72% | kinase still bound, per cent of control (MAPK6 (human)): 100% | kinase still bound, per cent of control (MATK (human)): 100% | kinase still bound, per cent of control (MERTK (human)): 100% | kinase still bound, per cent of control [3]: 96% | kinase still bound, per cent of control (NEK1 (human)): 83% | kinase still bound, per cent of control (NEK6 (human)): 76% | kinase still bound, per cent of control (NTRK2 (human)): 100% | kinase still bound, per cent of control (NUAK1 (human)): 47% | kinase still bound, per cent of control (NUAK2 (human)): 47% | kinase still bound, per cent of control (PAK3 (human)): 83% | kinase still bound, per cent of control [4]: 89% | kinase still bound, per cent of control [5]: 77% | pKd (PLK1 (human)): 7.12 | kinase still bound, per cent of control (PLK1 (human); compound 10.0 µM): 0.7% | kinase still bound, per cent of control (RAF1 (human)): 100% | kinase still bound, per cent of control (RPS6KA1 KD2 (human)): 10% | kinase still bound, per cent of control (SGK3 (human)): 95% | kinase still bound, per cent of control (SRPK3 (human)): 72% | kinase still bound, per cent of control (STK11 (human)): 96% | kinase still bound, per cent of control (STK35 (human)): 100% | kinase still bound, per cent of control [6]: 100% | kinase still bound, per cent of control (TYRO3 (human)): 100%
